The source of these data is ChEMBL document CHEMBL1158607, “2' biaryl amides as novel and subtype selective M1 agonists. Part I: Identification, synthesis, and initial SAR” (Bioorg Med Chem Lett, 2010).

Experiment [1] deals with T1, Muscarinic acetylcholine receptor M4 (Homo sapiens) (UniProt P08173).
T1 sequence (whole entry): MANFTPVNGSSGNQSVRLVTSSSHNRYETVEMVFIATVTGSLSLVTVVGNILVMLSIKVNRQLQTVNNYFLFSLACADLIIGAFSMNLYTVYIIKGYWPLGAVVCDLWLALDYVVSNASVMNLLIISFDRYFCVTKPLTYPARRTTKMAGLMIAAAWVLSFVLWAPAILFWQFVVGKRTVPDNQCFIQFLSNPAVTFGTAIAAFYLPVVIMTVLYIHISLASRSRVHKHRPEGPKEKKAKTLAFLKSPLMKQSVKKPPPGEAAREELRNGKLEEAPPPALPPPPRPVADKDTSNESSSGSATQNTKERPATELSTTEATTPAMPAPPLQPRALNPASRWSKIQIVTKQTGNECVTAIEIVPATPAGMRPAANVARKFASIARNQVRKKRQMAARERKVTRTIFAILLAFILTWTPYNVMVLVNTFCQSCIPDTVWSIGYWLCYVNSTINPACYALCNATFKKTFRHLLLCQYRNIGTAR
In words: Agonist activity at human muscarinic M4 receptor expressed in CHO cells assessed as effect on acetylcholine-induced intracellular calcium level by FLIPR assay. In kind it is functional, cell-based.

Experiment [2] deals with T2, Muscarinic acetylcholine receptor M2 (Homo sapiens, UniProt P08172).
T2 sequence (P08172 whole entry): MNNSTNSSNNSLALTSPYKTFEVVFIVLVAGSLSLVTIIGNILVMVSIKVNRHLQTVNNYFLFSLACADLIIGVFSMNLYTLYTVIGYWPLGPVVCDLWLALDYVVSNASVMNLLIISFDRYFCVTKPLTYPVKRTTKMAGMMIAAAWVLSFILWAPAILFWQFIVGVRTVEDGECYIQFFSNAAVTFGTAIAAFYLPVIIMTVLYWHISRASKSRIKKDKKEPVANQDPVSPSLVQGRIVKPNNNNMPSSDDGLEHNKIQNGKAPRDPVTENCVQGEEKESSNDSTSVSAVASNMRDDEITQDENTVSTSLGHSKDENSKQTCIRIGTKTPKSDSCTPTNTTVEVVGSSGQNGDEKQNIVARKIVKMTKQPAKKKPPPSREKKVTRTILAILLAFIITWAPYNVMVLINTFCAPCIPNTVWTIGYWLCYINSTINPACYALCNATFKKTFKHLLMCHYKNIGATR
Kind of experiment: Inhibition of human muscarinic M2 receptor expressed in CHO cells. In kind it is cell-based.

Experiment [3] addresses T3, Muscarinic acetylcholine receptor M3 (Homo sapiens, UniProt P20309). Kind of experiment: Inhibition of human muscarinic M3 receptor expressed in CHO cells. The class given is cell-based.
Target sequence in this assay (P20309 whole entry): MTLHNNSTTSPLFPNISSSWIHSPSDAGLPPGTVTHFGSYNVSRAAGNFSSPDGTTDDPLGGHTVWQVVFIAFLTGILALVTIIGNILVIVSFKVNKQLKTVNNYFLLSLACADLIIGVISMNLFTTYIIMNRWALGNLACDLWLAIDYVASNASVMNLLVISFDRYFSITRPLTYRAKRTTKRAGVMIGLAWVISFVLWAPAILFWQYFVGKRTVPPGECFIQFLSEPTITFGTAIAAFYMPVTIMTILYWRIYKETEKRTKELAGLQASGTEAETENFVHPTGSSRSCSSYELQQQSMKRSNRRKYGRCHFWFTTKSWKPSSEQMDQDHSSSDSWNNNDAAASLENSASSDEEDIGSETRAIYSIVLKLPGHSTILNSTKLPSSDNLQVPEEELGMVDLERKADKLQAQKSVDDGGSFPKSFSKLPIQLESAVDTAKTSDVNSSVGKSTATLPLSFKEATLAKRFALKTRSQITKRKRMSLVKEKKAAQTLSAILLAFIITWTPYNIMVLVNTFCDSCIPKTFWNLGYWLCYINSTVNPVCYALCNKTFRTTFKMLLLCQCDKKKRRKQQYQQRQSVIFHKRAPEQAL
Experiment [4] addresses T4, Muscarinic acetylcholine receptor M5 (Homo sapiens, UniProt P08912).
T4 sequence (P08912 whole entry): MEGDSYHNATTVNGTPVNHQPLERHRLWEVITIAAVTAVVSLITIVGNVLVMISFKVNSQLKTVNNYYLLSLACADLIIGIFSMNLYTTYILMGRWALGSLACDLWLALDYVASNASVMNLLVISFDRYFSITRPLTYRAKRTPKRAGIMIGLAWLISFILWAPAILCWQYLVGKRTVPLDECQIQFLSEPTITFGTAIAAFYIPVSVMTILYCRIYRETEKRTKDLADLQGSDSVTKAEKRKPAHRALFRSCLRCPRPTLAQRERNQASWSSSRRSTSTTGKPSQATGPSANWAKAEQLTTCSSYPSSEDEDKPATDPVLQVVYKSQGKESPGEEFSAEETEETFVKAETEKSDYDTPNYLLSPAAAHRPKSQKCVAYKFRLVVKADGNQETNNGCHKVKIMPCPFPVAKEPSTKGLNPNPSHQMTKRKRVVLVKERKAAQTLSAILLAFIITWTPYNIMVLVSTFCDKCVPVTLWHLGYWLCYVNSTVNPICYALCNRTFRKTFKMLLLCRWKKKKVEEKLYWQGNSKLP
In words: Inhibition of human muscarinic M5 receptor expressed in CHO cells. The class given is cell-based.

The target of experiment [5] is T5, Muscarinic acetylcholine receptor M4 (Homo sapiens, UniProt P08173).
T5 sequence (P08173 whole entry): T1 sequence (whole entry)
Kind of experiment: Inhibition of human muscarinic M4 receptor expressed in CHO cells. The class given is cell-based.

In experiment [6] the target is T6, Muscarinic acetylcholine receptor M1 (Homo sapiens, UniProt P11229).
T6 sequence (P11229 whole entry): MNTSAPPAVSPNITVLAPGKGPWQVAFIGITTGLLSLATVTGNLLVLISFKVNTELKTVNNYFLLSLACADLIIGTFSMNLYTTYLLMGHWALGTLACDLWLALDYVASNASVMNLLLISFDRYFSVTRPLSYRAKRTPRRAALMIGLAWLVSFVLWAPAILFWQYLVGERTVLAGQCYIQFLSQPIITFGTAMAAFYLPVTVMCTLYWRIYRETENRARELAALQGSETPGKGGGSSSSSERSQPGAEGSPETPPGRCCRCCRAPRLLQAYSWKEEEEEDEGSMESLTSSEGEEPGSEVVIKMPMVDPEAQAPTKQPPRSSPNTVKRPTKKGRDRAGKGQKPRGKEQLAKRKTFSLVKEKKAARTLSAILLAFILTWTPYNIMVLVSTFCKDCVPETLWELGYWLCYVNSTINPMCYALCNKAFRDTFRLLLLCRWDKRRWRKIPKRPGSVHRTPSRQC
In words: Agonist activity at human muscarinic M1 receptor expressed in CHO cells assessed as effect on acetylcholine-induced intracellular calcium level by FLIPR assay. The class given is functional, cell-based.

Experiment [7] addresses T7, Muscarinic acetylcholine receptor M5 (Homo sapiens) (UniProt P08912).
T7 sequence (whole entry): T4 sequence (P08912 whole entry)
Kind of experiment: Agonist activity at human muscarinic M5 receptor expressed in CHO cells assessed as effect on acetylcholine-induced intracellular calcium level by FLIPR assay. The class given is functional, cell-based.

The target in experiment [8] is T8, Muscarinic acetylcholine receptor M1 (Homo sapiens) (UniProt P11229).
T8 sequence (whole entry): T6 sequence (P11229 whole entry)
In words: Intrinsic activity at human muscarinic M1 receptor expressed in CHO cells assessed as effect on acetylcholine-induced intracellular calcium level by FLIPR assay relative to acetylcholine. The class given is functional, cell-based.

Experiment [9] addresses T9, Muscarinic acetylcholine receptor M2 (Homo sapiens) (UniProt P08172).
T9 sequence (whole entry): T2 sequence (P08172 whole entry)
Kind of experiment: Agonist activity at human muscarinic M2 receptor expressed in CHO cells assessed as effect on acetylcholine-induced intracellular calcium level by FLIPR assay. In kind it is functional, cell-based.

Experiment [10] concerns the target T3, Muscarinic acetylcholine receptor M3. In words: Agonist activity at human muscarinic M3 receptor expressed in CHO cells assessed as effect on acetylcholine-induced intracellular calcium level by FLIPR assay. In kind it is functional, cell-based.
Target sequence in this assay (P20309 whole entry, looked up): as the sequence (P20309 whole entry) above
Experiment [11] concerns the target Muscarinic acetylcholine receptors; M1 & M2 (Homo sapiens) (UniProt P11229+P08172). In words: Selectivity ratio of EC50 for human muscarinic M2 receptor to EC50 for human muscarinic M1 receptor.
For experiment [12], the species on record is Homo sapiens. In words: Selectivity ratio of EC50 for human muscarinic M5 receptor to EC50 for human muscarinic M1 receptor.
Experiment [13] is filed under the species Homo sapiens. In words: Selectivity ratio of EC50 for human muscarinic M4 receptor to EC50 for human muscarinic M1 receptor.
Experiment [14] deals with Muscarinic acetylcholine receptor M1 and M3 (Homo sapiens) (UniProt P20309+P11229). Kind of experiment: Selectivity ratio of EC50 for human muscarinic M3 receptor to EC50 for human muscarinic M1 receptor.

Activity calls are given as the source filed them. The rule behind the calls is not given here. Some results are limits rather than exact numbers.

Chain of Muscarinic acetylcholine receptor M1 and M3 (Homo sapiens) (P20309 whole entry, looked up, one chain of several): as the sequence (P20309 whole entry) above

For the molecule `O=C(NCC1CCNCC1)c1ccccc1-c1cccc(Cl)c1`, the outcome in experiment [1], in experiment [7], in experiment [9] and in [10] was inactive. The half-maximal inhibitory concentration (IC50) was 7.94 µM in experiment [2], 3.98 µM in experiment [3], > 10 µM in experiment [4] and 5.01 µM in experiment [5]. Also, in experiment [6], the 50% effective concentration (EC50) is 0.0631 µM. Besides, the Intrinsic activity in experiment [8] is 86%.

On to `CC1CNCCC1CNC(=O)c1ccccc1-c1cccc(Cl)c1` (centres undefined), for which the Ratio EC50 (in experiment [11]; in the experiment filed under Homo sapiens [12]; in the experiment filed under Homo sapiens [13]; in experiment [14]) was 100 each time. The result in experiment [1], in [7], in experiment [9] and in experiment [10] was inactive. In addition, the 50% inhibitory concentration (IC50) is 3.98 µM in experiment [2], 1.26 µM in [3], > 10 µM in experiment [4] and 3.16 µM in experiment [5]. Also, the EC50 in experiment [6] was 0.02 µM. Also, the Intrinsic activity in experiment [8] is 99%.

Turning to `O=C(NCC1CCNCC1)c1ccccc1-c1nc(Cl)cs1`, the result in experiment [1], in experiment [7], in experiment [9] and in experiment [10] was inactive. For the same molecule, in experiment [8], the Intrinsic activity is 84%.

`O=C(NCC1CCNCC1)c1ccccc1-c1cc(Cl)ccc1F`: the Ratio EC50 (in experiment [11]; in the experiment filed under Homo sapiens [12]; in the experiment listed under Homo sapiens [13]; in experiment [14]) was 100 each time. For the same molecule, the concentration for half-maximal inhibition (IC50) was 2 µM in experiment [2], 1 µM in experiment [3], 5.01 µM in experiment [4] and 1.58 µM in experiment [5]. Further, the concentration for a half-maximal effect (EC50) in experiment [6] is 0.01 µM. Moreover, the Intrinsic activity in [8] is 111%.

`Cc1ccc(-c2ccccc2C(=O)NCC2CCNCC2)cc1Cl`: the result in [1], in [7], in [9] and in experiment [10] was inactive. In addition, the IC50 in experiment [2] was 0.398 µM; in experiment [3] it was 0.251 µM; in experiment [4] it was 0.794 µM; in experiment [5] it was 0.398 µM. Further, the EC50 in experiment [6] is 0.0126 µM. In addition, in [8], the Intrinsic activity was determined as 91%.
